Reference: patent US20260216142A1, “USES OF ZLN-005 AND RELATED COMPOUNDS” (priority 2022, published 2026)

Tests used:
THP-1 cells = assay: Autophagy flux (LC3 conversion, Western blotting) in LPS model of THP-1; assay type: cell-based, human; conditions: 6 hours LPS followed by 2 or 6 hours autophagy inhibitor (50 nM bafilomycin A1 or 30 nM chloroquine)
Protocol: Cells were incubated at 37° C. in a humidified 5% CO2 incubator. […] After 48 hours, the supernatant of the medium was carefully removed to avoid detaching the cells attached to the bottom of the plate and replaced with new medium containing 1 μM ZLN-005 or DMSO (0.1%) as a control. […] For PI3K inhibition, the cells were seeded in the plate and added 200 nM Wortmannin (AG-CN2-0023-M001, Adipogen Life Sciences Inc.).
Protein levels were quantified using ImageJ™.

CLP sepsis model = assay: Echocardiographic measurement at 24 hours post-CLP; assay type: in vivo, mice; conditions: 24 hours after CLP
Protocol: Chest hair was removed with cream one day before echocardiography was performed using VisualSonics Vevo®@2100 equipped with an 18- to 38-MHz probe (VisualSonics, Toronto, ON, Canada). Mice were anesthetized by inhalation of isoflurane at 24 hours post-CLP. The left ventricle was assessed in the parasternal short-axis view. Left ventricular end-systole or end-diastole was defined as the period when the left ventricular lumen was shortest or most dilated, respectively. Diastolic left ventricular (LV) internal diameters, systolic LV internal diameters, diastolic LV anterior wall, and diastolic LV posterior wall were measured from the LV M-mode tracing at the papillary muscle level. LV wall thickness was calculated as the average of anterior and posterior wall thicknesses.

[1] = system: cecal ligation and perforation (CLP) model; assay: CLP model of sepsis: survival and behavior; assay type: in vivo, C57BL/6 mice; conditions: 12 mg/kg i.p. daily Day 0 to Day 2
Protocol: Cecal ligation and perforation was performed on C57BL/6 mice about 10 to 20 weeks of age. Mice were administered either ZLN-005 at 12 mg/kg (i.p.) or vehicle (DMSO) at the time of cecal ligation and perforation, 24 hours later, and 48 hours later (FIG. 1A).
C57BL/6 mice were purchased from Shimizu Laboratory Supplies Co., Ltd. (Kyoto, Japan). Mice were housed in specific-pathogen-free conditions with free access to food and water. Mice were anesthetized by inhalation of isoflurane (099-06571, FUJIFILM Wako Pure Chemical Corporation, Tokyo, Japan). A midline incision was made, followed by externalization, and the cecum was then ligated at half the distance between the distal pole and the base of the cecum and punctured with a 21-gauge needle (NN-2116R, Terumo Corporation, Tokyo, Japan). Next, a small amount of fecal mass from the punctured cecum was gently squeezed out to ensure patency of punctures, the cecum was relocated, and 6/0 Ethicon PROLENE Suture (Ethicon, Inc., Raritan, NJ, USA) was used to close the peritoneum and skin. Sham-operated mice underwent only incision and cecum exteriorization. […]
The results are presented as the means±standard deviations. The statistical significance of differences among groups was evaluated using parametric unpaired t tests for bar graphs. […]

naïve THP-1 = assay: Expression over time in naïve THP-1; assay type: cell-based, human

| Structure (SMILES) | LC3-II and LC3-II/I ratios (THP-1 cells) | ejection fraction (CLP sepsis model) [%] | mice alive at 72 hours ([1]; 72 hours post-CLP) [%] | mice alive after 6 days ([1]; 6 days post-CLP) [%] | increase in expression at the protein level (naïve THP-1; naïve THP-1, 36 hours (data not shown)) [fold] | increase in expression at the mRNA level (naïve THP-1; naïve THP-1, 48 hours (data not shown)) [fold] |
| --- | --- | --- | --- | --- | --- | --- |
| CO/C1=C\C(C)=C\[C@@H](C)[C@@H](O)[C@@H](C)C/C(C)=C/C=C/[C@H](OC)[C@@H]([C@@H](C)[C@@H](O)[C@H](C)[C@@]2(O)C[C@@H](O)[C@H](C)[C@@H](C(C)C)O2)OC1=O [bafilomycin A1] | increasing with significant differences | – | – | – | – | – |
| CC(C)(C)c1ccc(-c2nc3ccccc3[nH]2)cc1 [ZLN-005, 2-(4-tert-butylphenyl)-1H-benzimidazole] | – | ~50 | 40 | 30 | 2 | 2 |
